Measured values: patent US4185032A, “Ureylene phenylene anionic naphthalenesulfonic acids” (American Cyanamid Company, priority 1978, dated 1980)
Counter-ions that a name gives are not always drawn.

Assays:
[1] = tested on: whole complement; assay: Complement Level Reduction Test (in vivo, guinea pig; serum whole complement by capillary tube assay)
From the text: (§1) An active inhibitor protects C2 from C1 and C4; (ii) Test Code 035 (C3-C9 inhibitor)--This test determines the ability of the late components of human complement (C3-C9) to lyse EAC 142 in the presence of appropriate dilutions of the test compound. An active inhibitor protects EAC 142 from lysis by human C3-C9; (iii) Test Code 036 (C-Shunt inhibitor)--In this test human erythrocytes rendered fragile are lysed in autologous serum via the shunt pathway activated by cobra venom factor in the presence of appropriate dilutions of the test compound. Inhibition of the shunt pathway results in failure of lysis; (iv) Forssman Vasculitis Test--Here, the well known complement dependent lesion, Forssman vasculitis, is produced in guinea pigs by intradermal injection of rabbit anti-Forssman antiserum. The lesion is measured in terms of diameter, edema and hemorrhage and the extent to which a combined index of these is inhibited by prior intraperitoneal injection of the test compound at 200 mg/kg is then reported, unless otherwise stated; (v) Forssman Shock Test--Lethal shock is produced in guinea pigs by an i.v. injection of anti-Forssman antiserum and the harmonic mean death time of treated guinea pigs is compared with that of simultaneous controls; (vi) Complement Level Reduction Test--In this test, the above dosed guinea pigs, or others, are bled for serum and the complement level is determined in undiluted serum by the capillary tube method of U.S. Pat. No. 3,876,376 and compared to undosed control guinea pigs; and (viii) Cap 50 Test--Here, appropriate amounts of the test compound are added to a pool of guinea pig serum in vitro, after which the undiluted serum capillary tube assay referred to about is run. The concentration of compound inhibiting 50% is reported.
With reference to Table I. guinea pigs weighing about 300 g were dosed intravenously (i.v.) or intraperitoneally (i.p.) with 200 mg/kg of the test compound dissolved in saline and adjusted to pH 7-8. […] The serum was tested for whole complement using the capillary tube assay. Percent inhibition was calculated by comparison with simultaneous controls. The results appear in Table I together with results of tests code 026, 035, 036, Cap 50, % inhibition and Forssman shock.

[2] = tested on: late components of human complement (C3-C9); assay: Test Code 035 (C3-C9 inhibitor), lysis of EAC 142; type: cell-based
From the text: as §1

[3] = tested on: shunt pathway; assay: Test Code 036 (C-Shunt inhibitor), lysis of human erythrocytes via the shunt pathway activated by cobra venom factor; type: cell-based
From the text: as §1

[4] = molecular target: T1, activated human C1 (Homo sapiens, UniProt P09871); assay: Test Code 026 (C1 inhibitor); type: biochemical; conditions: well number in twofold serial dilution assay, higher = more active
T1 construct: fluid-phase human C2 as substrate in presence of C4
From the text: as §1

[5] = tested on: complement system; conditions: literature, in words; cited from earlier work
[6] = tested on: hereditary angioneurotic edema; conditions: literature, in words; cited from earlier work
[7] = tested on: human serum complement; conditions: in vitro and in vivo; reduction in total hemolytic complement activity; cited from earlier work
[8] = Table I, well number in twofold serial dilution assay, higher = more active
[9] = Table II (Intermediates), twofold serial dilution assay

T1 sequence (P09871 16-688): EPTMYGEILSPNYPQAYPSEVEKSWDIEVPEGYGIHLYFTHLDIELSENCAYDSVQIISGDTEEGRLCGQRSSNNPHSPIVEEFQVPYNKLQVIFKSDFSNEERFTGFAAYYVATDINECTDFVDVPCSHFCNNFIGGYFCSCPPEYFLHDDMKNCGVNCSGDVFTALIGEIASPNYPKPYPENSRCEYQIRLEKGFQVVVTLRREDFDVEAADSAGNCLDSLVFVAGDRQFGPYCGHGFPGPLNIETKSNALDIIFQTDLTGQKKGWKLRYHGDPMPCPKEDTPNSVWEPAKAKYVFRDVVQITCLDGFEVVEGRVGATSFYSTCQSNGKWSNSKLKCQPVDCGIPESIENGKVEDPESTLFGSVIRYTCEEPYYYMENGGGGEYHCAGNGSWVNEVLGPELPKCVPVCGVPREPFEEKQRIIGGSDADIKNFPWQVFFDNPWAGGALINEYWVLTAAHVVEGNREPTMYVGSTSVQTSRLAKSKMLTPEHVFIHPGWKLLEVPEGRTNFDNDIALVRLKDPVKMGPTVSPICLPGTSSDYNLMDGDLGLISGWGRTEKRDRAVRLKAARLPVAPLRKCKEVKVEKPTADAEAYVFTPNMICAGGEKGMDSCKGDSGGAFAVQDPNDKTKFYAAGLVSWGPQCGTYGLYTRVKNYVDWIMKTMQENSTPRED
T1 sequence (P00736 18-705 partner): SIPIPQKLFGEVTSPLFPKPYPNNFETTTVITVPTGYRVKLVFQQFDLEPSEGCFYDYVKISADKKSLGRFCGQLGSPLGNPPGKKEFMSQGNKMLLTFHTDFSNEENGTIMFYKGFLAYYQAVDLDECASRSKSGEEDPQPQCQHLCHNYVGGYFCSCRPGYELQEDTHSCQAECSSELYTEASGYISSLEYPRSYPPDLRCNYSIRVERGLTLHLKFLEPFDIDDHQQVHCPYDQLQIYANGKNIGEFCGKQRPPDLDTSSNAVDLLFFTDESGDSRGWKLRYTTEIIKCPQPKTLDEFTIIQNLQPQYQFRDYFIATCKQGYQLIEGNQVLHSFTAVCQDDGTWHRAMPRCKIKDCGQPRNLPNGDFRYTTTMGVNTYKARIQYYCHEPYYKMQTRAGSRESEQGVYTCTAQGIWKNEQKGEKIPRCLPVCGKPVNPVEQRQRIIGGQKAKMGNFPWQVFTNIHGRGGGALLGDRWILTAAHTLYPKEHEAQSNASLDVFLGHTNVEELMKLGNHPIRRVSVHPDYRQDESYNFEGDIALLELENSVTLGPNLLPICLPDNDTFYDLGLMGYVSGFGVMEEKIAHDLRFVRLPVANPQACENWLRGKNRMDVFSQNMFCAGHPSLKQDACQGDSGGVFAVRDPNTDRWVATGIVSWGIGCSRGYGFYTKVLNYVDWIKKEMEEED
T1 sequence (P02745 23-245 partner): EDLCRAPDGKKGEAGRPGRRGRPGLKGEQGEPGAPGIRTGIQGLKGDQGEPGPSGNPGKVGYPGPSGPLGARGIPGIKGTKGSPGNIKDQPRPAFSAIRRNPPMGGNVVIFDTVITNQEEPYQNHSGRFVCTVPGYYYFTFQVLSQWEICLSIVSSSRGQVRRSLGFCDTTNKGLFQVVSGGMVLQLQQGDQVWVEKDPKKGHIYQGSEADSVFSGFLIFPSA
T1 sequence (P02746 28-253 partner): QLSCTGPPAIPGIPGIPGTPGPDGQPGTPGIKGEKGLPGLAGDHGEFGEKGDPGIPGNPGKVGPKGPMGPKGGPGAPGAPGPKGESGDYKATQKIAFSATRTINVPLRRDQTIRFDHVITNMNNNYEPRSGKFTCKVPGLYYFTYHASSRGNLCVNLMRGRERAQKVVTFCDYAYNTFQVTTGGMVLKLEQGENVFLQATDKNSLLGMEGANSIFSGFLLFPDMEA
T1 sequence (P02747 29-245 partner): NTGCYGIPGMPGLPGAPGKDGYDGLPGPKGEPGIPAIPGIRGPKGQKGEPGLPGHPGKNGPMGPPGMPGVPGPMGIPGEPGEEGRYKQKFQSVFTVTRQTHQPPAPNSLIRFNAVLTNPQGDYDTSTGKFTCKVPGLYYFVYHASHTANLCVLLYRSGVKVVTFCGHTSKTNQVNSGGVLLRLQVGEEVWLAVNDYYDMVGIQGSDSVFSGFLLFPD

O=C(Nc1cc(C(=O)O)cc(C(=O)Nc2cc(C(=O)O)cc(C(=O)Nc3ccc(S(=O)(=O)O)c4cc(S(=O)(=O)O)cc(S(=O)(=O)O)c34)c2)c1)Nc1cc(C(=O)O)cc(C(=O)Nc2cc(C(=O)O)cc(C(=O)Nc3ccc(S(=O)(=O)O)c4cc(S(=O)(=O)O)cc(S(=O)(=O)O)c34)c2)c1 [5,5'-Ureylenebis[N-[3-carboxy-5-(4,6,8-trisulfo-1-naphthylca] [5,5'-Ureylenebis[N-[3-carboxy-5-(4,6,8-trisulfo-1-naphthaylcarbamoyl)phenyl]isophthalamic acid], decasodium salt]
% Inhibition, Intraperitoneal, 30 minutes ([1]; Table I, i.p. 200 mg/kg): -86%
% Inhibition, Intraperitoneal, 60 minutes ([1]; Table I, i.p. 200 mg/kg): -89%
% Inhibition, Intraperitoneal, 120 minutes ([1]; Table I, i.p. 200 mg/kg): -96%
C-Late 035 Wells [2, 8]: +2 wells

O=C(Nc1ccc(C(=O)Nc2cc(C(=O)O)cc(C(=O)Nc3ccc(S(=O)(=O)O)c4cc(S(=O)(=O)O)cc(S(=O)(=O)O)c34)c2)c(S(=O)(=O)O)c1)Nc1ccc(C(=O)Nc2cc(C(=O)O)cc(C(=O)Nc3ccc(S(=O)(=O)O)c4cc(S(=O)(=O)O)cc(S(=O)(=O)O)c34)c2)c(S(=O)(=O)O)c1 [5,5'-[Ureylenebis[(2-sulfo-4,1-phenylenecarbonyl)-imino]]bis[N-4,6,8-trisulfo-1-naphthylisophthalamic acid], octasodium salt]
C-Late 035 Wells [2, 8]: +2 wells
Shunt Inhibition 036 Wells [3, 8]: +5 wells
Cl 026 Wells ([4]; Table I): +6 wells

Nc1ccc(C(=O)Nc2cc(C(=O)O)cc(C(=O)Nc3ccc(S(=O)(=O)[O-])c4cc(S(=O)(=O)[O-])cc(S(=O)(=O)[O-])c34)c2)c(S(=O)(=O)[O-])c1.[Na+].[Na+].[Na+].[Na+] [5-(4-Amino-2-sulfobenzamido)-N-(4,6,8-trisulfo-1-naphthyl)isophthalamic acid, tetrasodium salt]
C-Late 035 Wells [2, 9]: N
Shunt Inhibition 036 Wells [3, 9]: N
Cl 026 Wells ([4]; Table II (Intermediates)): +3 wells

Nc1cc(C(=O)O)cc(C(=O)Nc2cc(C(=O)O)cc(C(=O)Nc3ccc(S(=O)(=O)[O-])c4cc(S(=O)(=O)[O-])cc(S(=O)(=O)[O-])c34)c2)c1.[Na+].[Na+].[Na+] [5-Amino-3'-carboxy-5'-(4,6,8-trisulfo-1-naphthylcarbamoyl)isophthalanilic acid, trisodium salt]
C-Late 035 Wells [2, 9]: N
Shunt Inhibition 036 Wells [3, 9]: N
Cl 026 Wells ([4]; Table II (Intermediates)): +3 wells

O=C(Nc1ccc(C(=O)Nc2ccc(C(=O)Nc3cc(S(=O)(=O)O)cc4cc(S(=O)(=O)O)cc(S(=O)(=O)O)c34)c(S(=O)(=O)O)c2)c(S(=O)(=O)O)c1)Nc1ccc(C(=O)Nc2ccc(C(=O)Nc3cc(S(=O)(=O)O)cc4cc(S(=O)(=O)O)cc(S(=O)(=O)O)c34)c(S(=O)(=O)O)c2)c(S(=O)(=O)O)c1 [8,8'-[Ureylenebis[(2-sulfo-4,1-phenylenecarbonyl)-imino](2-sulfo-4,1-phenylenecarbonyl)imino]di-1,3,6-naphthalenetrisulfonic acid, decasodium salt]
% Inhibition, Intraperitoneal, 30 minutes ([1]; Table I, i.p. 200 mg/kg): -68%
% Inhibition, Intraperitoneal, 60 minutes ([1]; Table I, i.p. 200 mg/kg): -24%
% Inhibition, Intraperitoneal, 120 minutes ([1]; Table I, i.p. 200 mg/kg): -14%
C-Late 035 Wells [2, 8]: +1 wells
Cl 026 Wells ([4]; Table I): +8 wells

O=C(Nc1ccc(C(=O)Nc2ccc(C(=O)Nc3ccc(S(=O)(=O)[O-])c4cc(S(=O)(=O)[O-])cc(S(=O)(=O)[O-])c34)c(S(=O)(=O)[O-])c2)c(S(=O)(=O)[O-])c1)Nc1ccc(C(=O)Nc2ccc(C(=O)Nc3ccc(S(=O)(=O)[O-])c4cc(S(=O)(=O)[O-])cc(S(=O)(=O)[O-])c34)c(S(=O)(=O)[O-])c2)c(S(=O)(=O)[O-])c1.[Na+].[Na+].[Na+].[Na+].[Na+].[Na+].[Na+].[Na+].[Na+].[Na+] [8,8'-[Ureylenebis[(2-sulfo-4,1-phenylenecarbonyl)imino(2-sulfo-4,1-phenylenecarbonyl)imino]]di-1,3,5-naphthalenetrisulfonic acid, decasodium salt]
% Inhibition, Intraperitoneal, 30 minutes ([1]; Table I, i.p. 200 mg/kg): -31%
% Inhibition, Intraperitoneal, 60 minutes ([1]; Table I, i.p. 200 mg/kg): -36%
% Inhibition, Intraperitoneal, 120 minutes ([1]; Table I, i.p. 200 mg/kg): -58%
% Inhibition, Intravenous, 2 minutes ([1]; Table I, i.v. 200 mg/kg): -38%
% Inhibition, Intravenous, 30 minutes ([1]; Table I, i.v. 200 mg/kg): -47%
% Inhibition, Intravenous, 120 minutes ([1]; Table I, i.v. 200 mg/kg): -22%
C-Late 035 Wells [2, 8]: +1 wells
Shunt Inhibition 036 Wells [3, 8]: +4 wells
Cl 026 Wells ([4]; Table I): +7 wells

Nc1ccc(C(=O)Nc2ccc(C(=O)Nc3ccc(S(=O)(=O)[O-])c4cc(S(=O)(=O)[O-])cc(S(=O)(=O)[O-])c34)c(S(=O)(=O)[O-])c2)c(S(=O)(=O)[O-])c1.[Na+].[Na+].[Na+].[Na+].[Na+] [8-[4-(4-Amino-2-sulfobenzamido)-2-sulfobenzamido]-1,3,5-naphthalenetrisulfonic acid, pentasodium salt]
% Inhibition, Intraperitoneal, 30 minutes ([1]; Table II (Intermediates), i.p.): -15%
% Inhibition, Intraperitoneal, 60 minutes ([1]; Table II (Intermediates), i.p.): -17%
% Inhibition, Intraperitoneal, 120 minutes ([1]; Table II (Intermediates), i.p.): -23%
% Inhibition, Intravenous, 2 minutes ([1]; Table II (Intermediates), i.v.): -52%
% Inhibition, Intravenous, 30 minutes ([1]; Table II (Intermediates), i.v.): -28%
% Inhibition, Intravenous, 120 minutes ([1]; Table II (Intermediates), i.v.): -10%
C-Late 035 Wells [2, 9]: N
Shunt Inhibition 036 Wells [3, 9]: N
Cl 026 Wells ([4]; Table II (Intermediates)): +4 wells

Nc1ccc(C(=O)Nc2ccc(C(=O)Nc3cc(S(=O)(=O)[O-])cc4cc(S(=O)(=O)[O-])cc(S(=O)(=O)[O-])c34)c(S(=O)(=O)[O-])c2)c(S(=O)(=O)[O-])c1.[Na+].[Na+].[Na+].[Na+].[Na+] [8-[4-(4-Amino-2-sulfobenzamido)-2-sulfobenzamido]-1,3,6-naphthalenetrisulfonic acid pentasodium salt]
% Inhibition, Intravenous, 2 minutes ([1]; Table II (Intermediates), i.v.): -77%
% Inhibition, Intravenous, 30 minutes ([1]; Table II (Intermediates), i.v.): -43%
% Inhibition, Intravenous, 120 minutes ([1]; Table II (Intermediates), i.v.): -31%
C-Late 035 Wells [2, 9]: N
Shunt Inhibition 036 Wells [3, 9]: N
Cl 026 Wells ([4]; Table II (Intermediates)): +5 wells

Cc1ccc(C(=O)Nc2ccc(S(=O)(=O)O)c3cc(S(=O)(=O)O)cc(S(=O)(=O)O)c23)cc1NC(=O)c1cccc(NC(=O)Nc2cccc(C(=O)Nc3cc(C(=O)Nc4ccc(S(=O)(=O)O)c5cc(S(=O)(=O)O)cc(S(=O)(=O)O)c45)ccc3C)c2)c1 [Suramin, reference compound]
% Inhibition, Intraperitoneal, 30 minutes ([1]; Table I, i.p. 200 mg/kg): -9%
% Inhibition, Intraperitoneal, 60 minutes ([1]; Table I, i.p. 200 mg/kg): -17%
% Inhibition, Intraperitoneal, 120 minutes ([1]; Table I, i.p. 200 mg/kg): -44%
anticomplementary effect / complement inhibition [5]: moderately active as a complement inhibitor
Cl 026 Wells ([4]; Table I): +4 wells

Nc1ccc2cc(S(=O)(=O)O)cc(O)c2c1N=Nc1ccc(NC(=O)Nc2ccc(N=Nc3c(N)ccc4cc(S(=O)(=O)O)cc(O)c34)c(S(=O)(=O)O)c2)cc1S(=O)(=O)O [chloroazol fast pink, 3,3'-ureylenebis[6-(2-amino-8-hydroxy-6-sulfo-1-naphthylazo)benezenesulfonic acid], tetrasodium salt]
anticomplementary effect / complement inhibition [5]: anticomplementary effect

NCCCCCC(=O)O [epsilon-aminocaproic acid]
success in the treatment of hereditary angioneurotic edema [6]: used with success in the treatment of hereditary angioneurotic edema

NC[C@H]1CC[C@H](C(=O)O)CC1 [tranexamic acid]
success in the treatment of hereditary angioneurotic edema [6]: used with success in the treatment of hereditary angioneurotic edema

heparin
anticomplementary effect / complement inhibition [5]: anticomplementary effect

pentosan-polysulfoester
anticomplementary activity on human serum [7]: anticomplementary activity on human serum, both in vitro and in vivo
